Results published in US10266537B2, “3-acetylenyl-pyrazole-pyrimidine derivative, and preparation method therefor and uses thereof” (Si Chuan University, priority 2015, dated 2019).

Key:
[1] = molecular target: PKCβII(h) (Homo sapiens (Human), UniProt P05771); assay: Kinase inhibition assay (KinaseProfiler, 33P-ATP); type: biochemical; conditions: read-out: The percentage of the remaining active protein
[2] = tested on: DU145; assay: Cell proliferation inhibition assay (MTT); type: cell-based; conditions: Homo sapiens, DU-145, 72 hours, read-out: Proliferation inhibitory activity IC50
[3] = molecular target: Ret (Homo sapiens (Human), UniProt P07949); assay: Kinase inhibition assay (KinaseProfiler, 33P-ATP); type: biochemical
Ret, sequence (P07949 29-1114): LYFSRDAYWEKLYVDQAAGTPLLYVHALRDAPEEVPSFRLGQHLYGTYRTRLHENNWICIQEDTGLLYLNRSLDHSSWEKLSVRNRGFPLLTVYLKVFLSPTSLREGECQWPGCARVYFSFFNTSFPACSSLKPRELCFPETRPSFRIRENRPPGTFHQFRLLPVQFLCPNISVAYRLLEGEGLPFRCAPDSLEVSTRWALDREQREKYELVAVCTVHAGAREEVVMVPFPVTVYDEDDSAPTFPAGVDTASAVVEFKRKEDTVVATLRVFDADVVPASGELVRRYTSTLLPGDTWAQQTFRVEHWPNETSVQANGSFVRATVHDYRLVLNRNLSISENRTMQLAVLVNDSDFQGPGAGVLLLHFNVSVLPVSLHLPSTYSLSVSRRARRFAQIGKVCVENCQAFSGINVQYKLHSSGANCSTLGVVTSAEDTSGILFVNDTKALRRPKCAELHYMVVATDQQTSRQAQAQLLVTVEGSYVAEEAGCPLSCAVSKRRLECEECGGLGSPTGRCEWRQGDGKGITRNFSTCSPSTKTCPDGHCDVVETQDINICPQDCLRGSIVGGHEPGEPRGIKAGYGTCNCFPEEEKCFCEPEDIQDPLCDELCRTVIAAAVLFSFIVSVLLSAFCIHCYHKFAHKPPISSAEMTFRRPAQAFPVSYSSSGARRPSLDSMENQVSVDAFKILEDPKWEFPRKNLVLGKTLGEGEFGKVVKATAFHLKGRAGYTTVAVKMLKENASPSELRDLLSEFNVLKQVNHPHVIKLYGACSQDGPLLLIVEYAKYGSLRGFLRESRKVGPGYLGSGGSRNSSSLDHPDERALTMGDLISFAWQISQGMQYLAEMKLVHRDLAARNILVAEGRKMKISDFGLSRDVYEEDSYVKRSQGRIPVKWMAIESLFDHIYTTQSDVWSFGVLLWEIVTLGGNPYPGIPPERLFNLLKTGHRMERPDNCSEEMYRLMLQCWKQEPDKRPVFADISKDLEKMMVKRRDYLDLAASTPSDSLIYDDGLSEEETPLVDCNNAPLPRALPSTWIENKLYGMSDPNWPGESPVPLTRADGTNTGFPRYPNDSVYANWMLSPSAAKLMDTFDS

[4] = molecular target: PI3 Kinase (p110a(H1047R)/p85a)(h) (Homo sapiens (Human), UniProt P42336, H1047R); assay: Kinase inhibition assay (KinaseProfiler, 33P-ATP); type: biochemical; conditions: read-out: The percentage of the remaining active protein
[5] = molecular target: EphA5 (Homo sapiens (Human), UniProt P54756); assay: Kinase inhibition assay (KinaseProfiler, 33P-ATP); type: biochemical; conditions: EphA5(h), read-out: The percentage of the remaining active protein
[6] = molecular target: MLK1(h) (Homo sapiens (Human), UniProt P80192); assay: Kinase inhibition assay (KinaseProfiler, 33P-ATP); type: biochemical; conditions: read-out: The percentage of the remaining active protein
MLK1(h), sequence (P80192 whole entry): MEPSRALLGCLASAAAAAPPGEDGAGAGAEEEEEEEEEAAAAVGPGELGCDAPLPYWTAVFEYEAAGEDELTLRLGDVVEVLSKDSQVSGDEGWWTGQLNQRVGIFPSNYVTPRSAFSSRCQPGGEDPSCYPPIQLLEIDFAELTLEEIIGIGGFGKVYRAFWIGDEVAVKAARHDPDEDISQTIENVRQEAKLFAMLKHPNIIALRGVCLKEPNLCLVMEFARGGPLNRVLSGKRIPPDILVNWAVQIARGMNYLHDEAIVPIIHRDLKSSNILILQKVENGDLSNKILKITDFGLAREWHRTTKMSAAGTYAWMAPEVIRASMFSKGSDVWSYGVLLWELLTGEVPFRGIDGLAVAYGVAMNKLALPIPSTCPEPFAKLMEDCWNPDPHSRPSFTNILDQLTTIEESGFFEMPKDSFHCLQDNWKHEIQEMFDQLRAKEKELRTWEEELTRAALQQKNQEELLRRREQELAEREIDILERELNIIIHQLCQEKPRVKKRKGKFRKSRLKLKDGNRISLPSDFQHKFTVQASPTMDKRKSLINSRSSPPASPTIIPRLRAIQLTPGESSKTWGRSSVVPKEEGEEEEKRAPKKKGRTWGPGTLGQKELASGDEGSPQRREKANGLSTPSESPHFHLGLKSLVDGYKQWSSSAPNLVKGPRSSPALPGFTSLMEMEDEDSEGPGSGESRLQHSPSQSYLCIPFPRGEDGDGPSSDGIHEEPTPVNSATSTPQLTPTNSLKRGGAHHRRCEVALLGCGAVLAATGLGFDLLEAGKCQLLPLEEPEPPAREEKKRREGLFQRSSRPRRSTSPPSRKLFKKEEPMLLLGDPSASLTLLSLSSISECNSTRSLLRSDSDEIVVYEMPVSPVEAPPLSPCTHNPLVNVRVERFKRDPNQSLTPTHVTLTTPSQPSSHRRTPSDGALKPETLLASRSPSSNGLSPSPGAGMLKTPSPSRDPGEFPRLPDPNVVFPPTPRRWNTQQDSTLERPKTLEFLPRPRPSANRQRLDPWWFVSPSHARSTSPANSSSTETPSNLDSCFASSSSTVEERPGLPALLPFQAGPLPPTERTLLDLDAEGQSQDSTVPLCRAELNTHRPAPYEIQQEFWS

[7] = molecular target: CLK2(h) (Homo sapiens (Human), UniProt P49760); assay: Kinase inhibition assay (KinaseProfiler, 33P-ATP); type: biochemical; conditions: read-out: The percentage of the remaining active protein
[8] = molecular target: PKG1α(h) (Homo sapiens (Human), UniProt Q13976); assay: Kinase inhibition assay (KinaseProfiler, 33P-ATP); type: biochemical; conditions: read-out: The percentage of the remaining active protein
[9] = molecular target: CDK9/cyclin T1(h) (Homo sapiens (Human), UniProt P50750); assay: Kinase inhibition assay (KinaseProfiler, 33P-ATP); type: biochemical; conditions: read-out: The percentage of the remaining active protein
[10] = molecular target: PEK(h) (Homo sapiens (Human), UniProt Q9NZJ5); assay: Kinase inhibition assay (KinaseProfiler, 33P-ATP); type: biochemical; conditions: read-out: The percentage of the remaining active protein
[11] = molecular target: SGK2(h) (Homo sapiens (Human), UniProt Q9HBY8); assay: Kinase inhibition assay (KinaseProfiler, 33P-ATP); type: biochemical; conditions: read-out: The percentage of the remaining active protein
SGK2(h), sequence (Q9HBY8 whole entry): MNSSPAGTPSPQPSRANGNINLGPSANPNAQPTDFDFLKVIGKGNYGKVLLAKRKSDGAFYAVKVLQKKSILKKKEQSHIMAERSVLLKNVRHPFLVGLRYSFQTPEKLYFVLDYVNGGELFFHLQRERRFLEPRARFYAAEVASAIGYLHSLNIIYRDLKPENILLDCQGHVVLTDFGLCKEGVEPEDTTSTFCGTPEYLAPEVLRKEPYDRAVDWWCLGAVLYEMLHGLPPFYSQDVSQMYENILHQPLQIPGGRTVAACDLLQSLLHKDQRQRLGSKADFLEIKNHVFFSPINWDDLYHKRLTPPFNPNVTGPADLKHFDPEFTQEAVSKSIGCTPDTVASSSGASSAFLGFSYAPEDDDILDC

[12] = molecular target: CDK6/cyclinD3(h) (Homo sapiens (Human), UniProt Q00534); assay: Kinase inhibition assay (KinaseProfiler, 33P-ATP); type: biochemical; conditions: read-out: The percentage of the remaining active protein
[13] = molecular target: CHK2(R145W)(h) (Homo sapiens (Human), UniProt O96017, R145W); assay: Kinase inhibition assay (KinaseProfiler, 33P-ATP); type: biochemical; conditions: read-out: The percentage of the remaining active protein
[14] = molecular target: FGFR2(N549H)(h) (Homo sapiens (Human), UniProt P21802, N549H); assay: Kinase inhibition assay (KinaseProfiler, 33P-ATP); type: biochemical; conditions: read-out: The percentage of the remaining active protein
[15] = tested on: U251; assay: Cell proliferation inhibition assay (MTT); type: cell-based; conditions: Homo sapiens, U-251, 72 hours, read-out: Proliferation inhibitory activity IC50
[16] = molecular target: MKK4(m) (Mus musculus (Mouse), UniProt P47809); assay: Kinase inhibition assay (KinaseProfiler, 33P-ATP); type: biochemical; conditions: read-out: The percentage of the remaining active protein
MKK4(m), sequence (P47809 whole entry): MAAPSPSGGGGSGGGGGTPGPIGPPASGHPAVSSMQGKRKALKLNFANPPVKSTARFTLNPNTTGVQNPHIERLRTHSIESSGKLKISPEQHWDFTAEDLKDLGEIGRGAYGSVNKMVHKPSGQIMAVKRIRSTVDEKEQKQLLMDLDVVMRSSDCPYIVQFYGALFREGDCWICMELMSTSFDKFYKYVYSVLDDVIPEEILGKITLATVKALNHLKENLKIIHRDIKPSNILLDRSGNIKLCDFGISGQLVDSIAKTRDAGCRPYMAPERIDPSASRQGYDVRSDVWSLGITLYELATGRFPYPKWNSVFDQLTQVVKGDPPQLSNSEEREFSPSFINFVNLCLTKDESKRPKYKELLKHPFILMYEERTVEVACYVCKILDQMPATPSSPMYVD

[17] = molecular target: Flt3(h) (Homo sapiens (Human), UniProt P36888); assay: Kinase inhibition assay (KinaseProfiler, 33P-ATP); type: biochemical; conditions: 10 μM, read-out: The percentage of the remaining active protein
[18] = molecular target: Pim-2(h) (Homo sapiens (Human), UniProt Q9P1W9); assay: Kinase inhibition assay (KinaseProfiler, 33P-ATP); type: biochemical; conditions: read-out: The percentage of the remaining active protein
[19] = molecular target: PDGFRα (D842V) (Homo sapiens (Human), UniProt P16234, D842V); assay: Kinase inhibition assay (KinaseProfiler, 33P-ATP); type: biochemical; conditions: PDGFRα(D842V)(h), read-out: The percentage of the remaining active protein
PDGFRα (D842V), sequence (P16234 24-1089 D842V): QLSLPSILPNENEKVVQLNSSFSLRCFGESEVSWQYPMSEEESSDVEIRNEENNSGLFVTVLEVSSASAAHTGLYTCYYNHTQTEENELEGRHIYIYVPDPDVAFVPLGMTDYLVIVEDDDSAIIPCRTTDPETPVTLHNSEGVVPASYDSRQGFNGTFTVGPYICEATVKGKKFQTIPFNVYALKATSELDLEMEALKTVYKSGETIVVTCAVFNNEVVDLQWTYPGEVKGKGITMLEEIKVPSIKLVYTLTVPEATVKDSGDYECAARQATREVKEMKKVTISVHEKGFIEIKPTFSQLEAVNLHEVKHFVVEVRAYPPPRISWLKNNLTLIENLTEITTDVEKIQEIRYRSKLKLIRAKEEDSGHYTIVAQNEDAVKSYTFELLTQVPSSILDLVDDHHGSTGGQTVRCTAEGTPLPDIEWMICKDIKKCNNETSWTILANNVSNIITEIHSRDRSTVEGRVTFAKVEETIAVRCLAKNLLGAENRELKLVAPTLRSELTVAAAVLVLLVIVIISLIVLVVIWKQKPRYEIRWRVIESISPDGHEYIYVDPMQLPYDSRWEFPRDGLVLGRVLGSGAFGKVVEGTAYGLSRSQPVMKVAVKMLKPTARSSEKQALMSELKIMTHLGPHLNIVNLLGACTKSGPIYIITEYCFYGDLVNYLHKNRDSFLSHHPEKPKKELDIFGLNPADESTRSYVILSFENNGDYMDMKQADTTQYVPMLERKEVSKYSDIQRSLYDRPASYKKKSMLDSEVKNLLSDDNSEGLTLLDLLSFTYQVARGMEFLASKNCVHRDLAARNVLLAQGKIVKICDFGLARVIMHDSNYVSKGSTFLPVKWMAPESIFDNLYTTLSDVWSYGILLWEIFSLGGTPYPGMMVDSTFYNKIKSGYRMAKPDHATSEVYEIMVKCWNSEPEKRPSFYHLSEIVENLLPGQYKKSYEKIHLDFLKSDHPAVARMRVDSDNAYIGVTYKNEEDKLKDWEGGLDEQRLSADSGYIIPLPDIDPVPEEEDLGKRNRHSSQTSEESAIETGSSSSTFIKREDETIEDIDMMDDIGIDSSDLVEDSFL

[20] = molecular target: GRK1(h) (Homo sapiens (Human), UniProt Q15835); assay: Kinase inhibition assay (KinaseProfiler, 33P-ATP); type: biochemical; conditions: read-out: The percentage of the remaining active protein
[21] = molecular target: Abl (Q252H)(h) (Homo sapiens (Human), UniProt P00519, Q252H); assay: Kinase inhibition assay (KinaseProfiler, 33P-ATP); type: biochemical; conditions: read-out: The percentage of the remaining active protein
[22] = molecular target: Tie2(Y897S)(h) (Homo sapiens (Human), UniProt Q02763, Y897S); assay: Kinase inhibition assay (KinaseProfiler, 33P-ATP); type: biochemical; conditions: read-out: The percentage of the remaining active protein
[23] = molecular target: Syk(h) (Homo sapiens (Human), UniProt P43405); assay: Kinase inhibition assay (KinaseProfiler, 33P-ATP); type: biochemical; conditions: read-out: The percentage of the remaining active protein
[24] = molecular target: FGFR4(h) (Homo sapiens (Human), UniProt P22455); assay: Kinase inhibition assay (KinaseProfiler, 33P-ATP); type: biochemical; conditions: read-out: The percentage of the remaining active protein
[25] = molecular target: PKCγ(h) (Homo sapiens (Human), UniProt P05129); assay: Kinase inhibition assay (KinaseProfiler, 33P-ATP); type: biochemical; conditions: read-out: The percentage of the remaining active protein
[26] = molecular target: SGK(h) (Homo sapiens (Human), UniProt O00141); assay: Kinase inhibition assay (KinaseProfiler, 33P-ATP); type: biochemical; conditions: read-out: The percentage of the remaining active protein
[27] = molecular target: Met(Y1248C)(h) (Homo sapiens (Human), UniProt P08581, Y1248C); assay: Kinase inhibition assay (KinaseProfiler, 33P-ATP); type: biochemical; conditions: read-out: The percentage of the remaining active protein
[28] = molecular target: Rsk3(h) (Homo sapiens (Human), UniProt Q15349); assay: Kinase inhibition assay (KinaseProfiler, 33P-ATP); type: biochemical; conditions: read-out: The percentage of the remaining active protein
[29] = molecular target: CaMKIIδ(h) (Homo sapiens (Human), UniProt Q13557); assay: Kinase inhibition assay (KinaseProfiler, 33P-ATP); type: biochemical; conditions: read-out: The percentage of the remaining active protein
[30] = molecular target: PI3 Kinase (p110a/p85a)(m) (Mus musculus (Mouse), UniProt P42337); assay: Kinase inhibition assay (KinaseProfiler, 33P-ATP); type: biochemical; conditions: read-out: The percentage of the remaining active protein
[31] = molecular target: Hck (Homo sapiens (Human), UniProt P08631); assay: Kinase inhibition assay (KinaseProfiler, 33P-ATP); type: biochemical; conditions: Hck(h); 10 μM; read-out: The percentage of the remaining active protein
[32] = molecular target: PRK2(h) (Homo sapiens (Human), UniProt Q16513); assay: Kinase inhibition assay (KinaseProfiler, 33P-ATP); type: biochemical; conditions: read-out: The percentage of the remaining active protein
PRK2(h), sequence (Q16513 whole entry): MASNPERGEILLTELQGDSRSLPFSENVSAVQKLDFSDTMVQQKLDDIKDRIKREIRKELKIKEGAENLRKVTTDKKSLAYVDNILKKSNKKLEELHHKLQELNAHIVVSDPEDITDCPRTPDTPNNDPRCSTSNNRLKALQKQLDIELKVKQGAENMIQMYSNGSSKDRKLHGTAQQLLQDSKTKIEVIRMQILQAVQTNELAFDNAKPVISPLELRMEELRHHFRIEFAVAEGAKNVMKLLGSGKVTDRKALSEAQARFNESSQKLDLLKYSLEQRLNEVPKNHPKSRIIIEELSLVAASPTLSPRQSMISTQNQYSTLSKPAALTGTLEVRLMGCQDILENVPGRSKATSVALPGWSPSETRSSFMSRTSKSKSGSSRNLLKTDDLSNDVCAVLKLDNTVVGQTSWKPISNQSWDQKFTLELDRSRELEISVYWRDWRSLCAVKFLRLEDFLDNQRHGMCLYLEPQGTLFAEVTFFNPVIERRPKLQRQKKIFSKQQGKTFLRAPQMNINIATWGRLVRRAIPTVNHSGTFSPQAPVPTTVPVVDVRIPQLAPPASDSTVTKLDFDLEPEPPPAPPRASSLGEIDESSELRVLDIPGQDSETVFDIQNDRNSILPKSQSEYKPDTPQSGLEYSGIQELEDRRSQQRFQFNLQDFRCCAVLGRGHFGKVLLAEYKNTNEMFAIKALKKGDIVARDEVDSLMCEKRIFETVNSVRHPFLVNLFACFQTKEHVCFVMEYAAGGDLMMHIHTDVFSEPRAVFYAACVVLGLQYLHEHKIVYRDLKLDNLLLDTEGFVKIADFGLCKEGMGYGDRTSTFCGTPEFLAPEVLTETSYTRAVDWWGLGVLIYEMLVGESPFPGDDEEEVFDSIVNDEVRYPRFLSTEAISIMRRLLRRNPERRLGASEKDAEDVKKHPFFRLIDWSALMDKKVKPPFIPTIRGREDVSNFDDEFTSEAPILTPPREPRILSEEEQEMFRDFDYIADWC

[33] = molecular target: MAPK2(h) (Homo sapiens (Human), UniProt P28482); assay: Kinase inhibition assay (KinaseProfiler, 33P-ATP); type: biochemical; conditions: read-out: The percentage of the remaining active protein
[34] = tested on: SMMC7721; assay: Cell proliferation inhibition assay (MTT); type: cell-based; conditions: Homo sapiens, SMMC-7721, 72 hours, read-out: Proliferation inhibitory activity IC50
[35] = molecular target: ASK1(h) (Homo sapiens (Human), UniProt Q99683); assay: Kinase inhibition assay (KinaseProfiler, 33P-ATP); type: biochemical; conditions: read-out: The percentage of the remaining active protein

remaining activity at 10 µM [1]: 99%
IC50 [2]: > 10000 nM
remaining activity at 10 µM ([3]; Ret(h), 10 μM, read-out: The percentage of the remaining active protein): 2%
IC50 ([3]; Ret, ATP at Km): 4 nM
remaining activity at 10 µM [4]: 89%
remaining activity at 10 µM [5]: -1%
remaining activity at 10 µM [6]: 7%
remaining activity at 10 µM [7]: 47%
remaining activity at 10 µM [8]: 118%
remaining activity at 10 µM [9]: 113%
remaining activity at 10 µM [10]: 39%
remaining activity at 10 µM [11]: 97%
remaining activity at 10 µM [12]: 120%
remaining activity at 10 µM [13]: 102%
remaining activity at 10 µM [14]: -1%
IC50 [15]: 100 nM
remaining activity at 10 µM [16]: 49%
remaining activity at 10 µM [17]: 73%
remaining activity at 10 µM [18]: 112%
remaining activity at 10 µM [19]: 0%
remaining activity at 10 µM [20]: 94%
remaining activity at 10 µM [21]: 2%
remaining activity at 10 µM [22]: 0%
remaining activity at 10 µM [23]: 95%
remaining activity at 10 µM [24]: 33%
remaining activity at 10 µM [25]: 90%
remaining activity at 10 µM [26]: 90%
remaining activity at 10 µM [27]: 139%
remaining activity at 10 µM [28]: 38%
remaining activity at 10 µM [29]: 89%
remaining activity at 10 µM [30]: 90%
remaining activity at 10 µM [31]: 0%
remaining activity at 10 µM [32]: 97%
remaining activity at 10 µM [33]: 108%
IC50 [34]: > 10000 nM
remaining activity at 10 µM [35]: 127%
SMILES: Cc1ccc(NC(=O)c2ccc(C)c(C(F)(F)F)c2)cc1C#Cc1nn([C@H]2CC[C@H](O)CC2)c2ncnc(N)c12 [Compound 93]
